In patent US20040081972A1, “Novel physiologically active peptide and use thereof” (priority 2000, published 2004):

Assays:
Type in all cases: cell-based
Conditions in all cases: final concentration 1 μmol/l
[1] = test system: blood vessel of an apoaequorin transgenic mouse; assay: Intracellular calcium (aequorin luminescence) in blood vessel pieces of apoaequorin transgenic mouse
Protocol: (§1) In order to evaluate physiological activities of the peptides prepared in Example 1, the prepared peptides were allowed to act upon organs excised from the living body, and changes in the concentration of an intracellular signal transduction substance in cells constituting the organs were measured.
(§2) In order to measure changes in the concentration of an intracellular signal transduction substance in cells constituting the organs, a transgenic mouse prepared by integrated an apoaequorin gene expression vector into a chromosome was used. Specifically, a female mouse derived from the transgenic mouse disclosed in Reference Example 4 as an individual number 98075-04-6 was used in the test. The transgenic mouse was prepared and reared as an SPF animal in a clean room, and was not contaminated with pathogens including mouse hepatitis virus, Sendai virus, mycoplasma and Tyzzer bacterium.
Aequorin is a bioluminescent protein complex which is present in the umbrella region of luminescent Aequorea victoria. Aequorin is constituted from its protein moiety apoaequorin, its luminescence substrate coelent razin and molecular oxygen, and emits light by its binding with calcium ion. Since expression of the apoaequorin protein has been confirmed in at least thymus, spleen, abdominal muscle, diaphragm, kidney, crystalline lens, pancreas, fat tissue, liver, skull, blood vessel, ovary, womb and adrenal gland of the transgenic mouse used in the test, it was able to monitor changes in the intracellular calcium ion concentration in these organs with a high sensitivity.
Organs were prepared from offsprings borne from the female of individual number 98075-04-6 to examine the activities of the peptides produced in Example 1. After the offsprings were killed, the thymus, spleen, abdominal muscle, diaphragm, kidney, crystalline lens, pancreas, fat tissue, liver, skull, blood vessel, ovary, womb and adrenal gland were excised. Each of the excised organs was cut into small cubes of about 1 to 2 mm square in PBS containing 10 units/ml of heparin sodium and thoroughly washed by changing the solution. Next, three pieces of each of the organ samples thus prepared were put into a 5 ml capacity tube (Rohren-Tubes; No. 55.476, manufactured by Sarstedt) which had been charged with RPMI 1640 medium containing 200 μl of 10 μmol/l coelenterazine (manufactured by Molecular Probes), and cultured at 37° C. for 5 hours. Five hours after, various substances shown below dissolved in RPMI 1640 medium were added at 200 μl, and the luminescence was measured just after the addition at 1 second intervals using a luminometer AutoLumat LB953 (manufactured by BERTHOLD).

[2] = test system: womb of an apoaequorin transgenic mouse; assay: Intracellular calcium (aequorin luminescence) in womb pieces of apoaequorin transgenic mouse
Protocol: as §1
as §2, with “The transgenic mouse was prepared and reared as an SPF animal in a clean room, and was not contaminated with pathogens including mouse hepatitis virus, Sendai virus, mycoplasma and Tyzzer bacterium.” left out
(§3) Aequorin is a bioluminescent protein complex which is present in the umbrella region of luminescent Aequorea victoria. Aequorin is constituted from its protein moiety apoaequorin, its luminescence substrate coelent razin and molecular oxygen, and emits light by its binding with calcium ion. […]
(§4) Organs were prepared from offsprings borne from the female of individual number 98075-04-6 to examine the activities of the peptides produced in Example 1. […] Five hours after, various substances shown below dissolved in RPMI 1640 medium were added at 200 μl, and the luminescence was measured just after the addition at 1 second intervals using a luminometer AutoLumat LB953 (manufactured by BERTHOLD).

[3] = test system: adrenal gland of an apoaequorin transgenic mouse; assay: Intracellular calcium (aequorin luminescence) in adrenal gland pieces of apoaequorin transgenic mouse
Protocol: as §1
as §2, with “The transgenic mouse was prepared and reared as an SPF animal in a clean room, and was not contaminated with pathogens including mouse hepatitis virus, Sendai virus, mycoplasma and Tyzzer bacterium.” left out
as §3, §4

Measured: luminescence (intracellular calcium increase)

angiotensin II [purchased from Research Biochemicals International (product code: A-151)]
Strong luminescence: all assays above
